Assay results published in patent US20230058189A1, “QUINOLIN-4-ONE AND 4(1H)-CINNOLINONE COMPOUNDS AND METHODS OF USING SAME” (Frequency Therapeutics, Inc., priority 2019, published 2023).
≈ marks a conversion by molar mass, not a printed value.

Columns and labels:
[1] = Caco-2 cell permeability assay; assay type: in vitro ADME; settings: human, pH 7.4, approximate values; for efflux ratio at 2 h, 10 µM: Caco-2, Papp (B-A)/Papp (A-B); for Papp A→B at 2 h, 10 μM: Caco-2, apical to basolateral
Description: A Caco-2 cell permeability assay can be used for in vitro prediction of drug permeability and absorption, an important feature for a compound to be useful for methods described herein. The apparent permeability (Papp) of the compounds of the present disclosure were determined in Caco-2 cells to measure the rate of drug transport per surface area of the cell membrane. Further the efflux ratios of the compounds of the present disclosure were measured in Caco-2 cells to determine the apparent permeability coefficient in basolateral to apical direction with respect to the apparent permeability coefficient in apical to basolateral direction.
50 μL and 25 mL of cell culture medium were added to each well of the Transwell insert and reservoir, respectively. The HTS transwell plates were incubated at 37° C., 5% CO2 for 1 hour before cell seeding. Caco-2 cells were diluted to 6.86×10^5 cells/mL with culture medium and 50 μL of cell suspension were dispensed into the filter well of the 96-well HTS Transwell plate. Cells were cultivated for 14-18 days in a cell culture incubator at 37° C., 5% CO295% relative humidity. Cell culture medium was replaced every other day, beginning no later than 24 hours after initial plating.
Medium was removed from the reservoir and each Transwell insert and replaced with prewarmed fresh culture medium. Transepithelial electrical resistance (TEER) across the monolayer was measured using Millicell Epithelial Volt-Ohm measuring system (Millipore, USA). The Plate was returned to the incubator once the measurement was done. The TEER value was calculated according to the following equation: TEER measurement (ohms)×Area of membrane (cm^2)=TEER value (ohm·cm^2).
To prepare the HBSS (25 mM HEPES, pH 7.4), accurately weigh 5.958 g of HEPES and 0.35 g sodium hydrogen carbonate and add into 900 mL of pure water, then sonicate to dissolve the content. Transfer 100 mL of 10× HBSS into the solution, and place the solution on a stirrer, slowly adjust pH with sodium hydrate to 7.4, following with filtering. Add 6 μL of stock solution (10 mM) of test compound or control compound to 24 μL of DMSO into the same well to obtain 2 mM stock solutions. Transfer 3 μL of 2 mM solution into 597 μL of transport buffer in one 96 well plate to prepare the 10 μM compound working solution. Shake the plate at 1000 rpm for 10 min. The final concentration of DMSO in the incubation system was 0.5%. Metoprolol, erythromycin, and cimetidine were used as control compounds.
Assays can be conducted using Caco-2 cells to assay transport of a compound or composition For example, Caco-2 plates prepared as described above were removed from the incubator. Monolayers were washed twice with pre-warmed HBSS (25 mM HEPES, pH 7.4), then the plates were incubated at 37° C. for 30 minutes. To determine the rate of drug transport in the apical to basolateral direction, 108 μL of the working solution was added to the Transwell insert (apical compartment), and 8 μL sample was immediately transferred from the apical compartment to 72 μL transport buffer and 240 μL of acetonitrile containing IS (100 nM alprazolam, 200 nM caffeine and 100 nM tolbutamide) in a new 96-well plate as the initial donor sample (A-B). The samples were then vortexed at 1000 rpm for 10 minutes. The wells in the receiver plate (basolateral compartment) were filled with 300 μL of transport buffer. To determine the rate of drug transport in the basolateral to apical direction, 308 μL of the working solution were added to the receiver plate wells (basolateral compartment), and 8 μL sample was immediately transferred from the basolateral compartment to 72 μL transport buffer and 240 μL of acetonitrile containing IS (100 nM alprazolam, 200 nM caffeine and 100 nM tolbutamide) into a new 96-well plate as the initial donor sample (B-A), then Vortexed at 1000 rpm for 10 minutes. The Transwell insert (apical compartment) was filled with 100 μL of transport buffer. […]

[2] = Thermodynamic aqueous solubility at pH 7.4; assay type: physicochemical; settings: aqueous buffer, thermodynamic from solid, phosphate buffer pH 7.4, 25° C., approximate values, read-out: Concentration (thermodynamic aqueous solubility)
Description: The aqueous thermodynamic solubilities of the compounds of the present disclosure were measured at pH 7.4.
Determining suitability for use of a compound, e.g., as a therapeutic agent can include determining the thermodynamic solubility of the compound. An example of this determination follows: Accurately weigh about 1 mg of the powder of each compound into a glass insert vial and phosphate buffer into each vial of a capless Solubility Sample plate with the volume of 1 mL per mg. Next, add one stir stick to each vial and seal with a molded PTDE/SIL 96-Well Plate Cover. Transfer the Solubility Sample plate to an Eppendorf Thermomixer Comfort plate shaker and shake the plate at 25° C. at 1,100 rpm for 24 hours. At the end of the incubation, open the cover and remove the stir sticks using a big magnet and transfer the samples from the Solubility Sample plate into the filter plate. Using the vacuum manifold, all the samples were filtered. An aliquot of 100 μL was transferred from filtrate to a new 96-well plate by addition of 900 μL of a mixture of H2O and acetonitrile containing an internal standard (1:1) (10 fold) and 10 μL of the diluted solution was pipetted into a new 96-well plate by addition of 990 μL of a mixture of H2O and acetonitrile containing internal standard (1:1) (1,000 fold). The dilution factor may be changed according to the solubility value and the LC/MS signal response.
To prepare standards for the assay, accurately weigh about 1 mg of the powder of each compound into a glass insert vial, add DMSO into each vial of the Standard Plate with the volume of 1 mL per mg to obtain the 1 mg/mL STD sample. Aliquots of 10 μL were taken from 1 mg/mL STD sample to a new 96-well plate followed by addition of 990 μL of a mixture of H2O and acetonitrile containing internal standard (1:1) to obtain 10 μg/mL STD and then 10 μL aliquots were taken from 10 μg/mL sample to a new 96-well plate followed by addition of 990 μL of a mixture of H2O and acetonitrile containing internal standard (1:1) to obtain 0.1 μg/mL STD. The concentration of the standard sample may be changed according to the LC/MS signal response.
The samples were analyzed and quantified against the standard of known concentration using LC/MS/MS. The solubility of the test compound was calculated as follows: [Sample]=Area Ratio sample×DF sample×[STD]/Area Ratio STD DF means the dilution factor. Any value of the compounds that is not within the specified limits was rejected and the experiment was repeated.

SMILES | efflux ratio at 2 h, 10 µM [1] | Papp A→B at 2 h, 10 μM [1] [×10⁻⁶ cm/s] | solubility thermodynamic at 24 h [2] [µM]
CCn1cc(C(N)=O)c(=O)c2c(N)c(F)c(NCCN[C@H]3C[C@@H]3c3ccccc3)cc21 (relative stereo) [Compound I-83] | 1.3 | 5.1 | 9.6 (≈ 4.07 µg/mL)
CCn1cc(C#N)c(=O)c2c(N)c(F)c(NCCN[C@@H]3C[C@H]3c3ccccc3)cc21 (relative stereo) [Compound I-84] | 2.1 | 4.1 | 49 (≈ 19.9 µg/mL)
Cn1cc(C(=O)O)c(=O)c2c(N)c(F)c(NCCN[C@@H]3C[C@H]3c3ccccc3)cc21 (relative stereo) [Compound I-86] | 1.4 | 5 | 23 (≈ 9.44 µg/mL)
CCCn1cc(C(=O)O)c(=O)c2c(N)c(F)c(NCCN[C@@H]3C[C@H]3c3ccccc3)cc21 (relative stereo) [Compound I-87] | 1.4 | 4.7 | 8 (≈ 3.51 µg/mL)
CCn1cc(C(=O)O)c(=O)c2c(N)c(F)c(NC3CCCCC3)cc21 [Compound I-7] | 0.32 | 13 | < 0.12
CCn1cc(C(=O)O)c(=O)c2c(N)c(F)c(NC3CCOCC3)cc21 [Compound I-8] | 3.02 | 11 | 35 (≈ 12.2 µg/mL)
CCn1cc(C(=O)O)c(=O)c2c(N)c(F)c(NC3CCCC3)cc21 [Compound I-9] | 0.56 | 3.4 | < 1.8
CCn1cc(C(=O)O)c(=O)c2c(N)c(F)c(NC3CCC3)cc21 [Compound I-12] | 0.72 | 21 | 2.7 (≈ 0.862 µg/mL)
CCn1cc(C(=O)O)c(=O)c2c(N)c(F)c(NCCCc3ccccc3)cc21 [Compound I-19] | 0.38 | 5.9 | < 0.03
CCn1cc(C(=O)O)c(=O)c2c(N)cc(NCCCc3ccccc3)cc21 [Compound I-57] | 0.4 | 7.1 | < 0.03
CCn1cc(C(N)=O)c(=O)c2c(N)c(F)c(NCCc3ccccc3)cc21 [Compound I-66] | 58 | 1.8 | 0.06 (≈ 0.0221 µg/mL)
CCn1cc(C#N)c(=O)c2c(N)c(F)c(NCCc3ccccc3)cc21 [Compound I-67] | 0.24 | 2.2 | 0.23 (≈ 0.0806 µg/mL)
CCn1cc(-c2nnn[nH]2)c(=O)c2c(N)c(F)c(NCCc3ccccc3)cc21 [Compound I-68] | 0.63 | 0.06 | 0.03 (≈ 0.0118 µg/mL)

Now from value to compound:

efflux ratio at 2 h, 10 µM [1] | Papp A→B at 2 h, 10 μM [1] [×10⁻⁶ cm/s] | solubility thermodynamic at 24 h [2] [µM] | SMILES
0.29 | 6.1 | < 0.3 | CCn1cc(C(=O)O)c(=O)c2c(N)c(F)c(N[C@@H]3C[C@H]3c3ccccc3)cc21 (single isomer, unassigned) [Compound I-20]
0.53 | 5.5 | < 0.08 | CCn1cc(C(=O)O)c(=O)c2c(N)c(F)c(NC3Cc4ccccc4C3)cc21 [Compound I-11]
0.48 | 38 | 2.4 (≈ 0.733 µg/mL) | CCn1cc(C(=O)O)c(=O)c2c(N)c(F)c(NC3CC3)cc21 [Compound I-15]
0.6 | 17 | 1.1 (≈ 0.375 µg/mL) | CCn1cc(C(=O)O)c(=O)c2c(N)c(F)c(Nc3ccccc3)cc21 [Compound I-16]
0.45 | 23 | 0.11 (≈ 0.0391 µg/mL) | CCn1cc(C(=O)O)c(=O)c2c(N)c(F)c(NCc3ccccc3)cc21 [Compound I-17]
0.66 | 11 | 0.12 (≈ 0.0443 µg/mL) | CCn1cc(C(=O)O)c(=O)c2c(N)c(F)c(NCCc3ccccc3)cc21 [Compound I-18]
0.5 | 0.32 | < 10 | CCn1cc(C(=O)O)c(=O)c2c(N)c(F)c(N[C@H]3C[C@H](c4ccccc4)C3)cc21 [Compound I-60]
0.85 | 0.11 | < 0.002 | CCn1cc(C(=O)O)c(=O)c2c(N)c(F)c(N[C@H]3C[C@@H](c4ccccc4)C3)cc21 [Compound I-61]
0.78 | 4.6 | < 0.03 | CCn1cc(C(=O)O)c(=O)c2c(N)c(F)c(NC3CN(c4ccccc4)C3)cc21 [Compound I-69]
